Values quoted from earlier work, collected in patent publication US20160158203A1, “METHODS OF TREATMENT WITH BIOAVAILABLE COMPOSITIONS OF METAXALONE COMPRISING NONVOLATILE LIQUIDS” (priority 2004, published 2016).

Conditions: as reviewed in U.S. Pat. Nos. 6,407,128 and 6,683,102

Aqueous solubility (description): essentially water-insoluble
Compound: Cc1cc(C)cc(OCC2CNC(=O)O2)c1 (stereo not shown) [metaxalone, 5-[(3,5-dimethylphenoxy)methyl]-2 oxazolidinone]
